What was measured:
Sprague-Dawley rats = test: Antinociceptive testing (tail flick / plantar test) after intrathecal or intravenous administration; format: in vivo; conditions: rat
Description: The following sequence protocol was used for the acute intrathecal administration to Sprague-Dawley rats. Each rat only underwent one cycle of the sequence protocol:
Intrathecal catheter placement was carried out as first described by Yaksh and Rudy (1976) The general thrust of the catheter placement involves the PE-10 catheter inserted into the subarachnoid space via the antlanto-occipital membrane (as the entry point) and threaded down to the lumber expansion of the spinal cord (spinal cord level L5/L6). The catheter tip is then exteriorised over the forehead. All animals are, assessed for normal motor function and behaviour post-surgery. […]
Drugs were administered in a 0.1 ml volume followed by 0.1 ml saline (0.9% sodium chloride solution; Baxter, Toongabbie, N.S.W., Australia) flush. Tail flick nociception was measured at 15, 30, and in the case of 0.1 mg/kg CP 55,940, 45 min after intravenous administration.
The antinociception tests were all conducted using the Plantar Test Instrument (Ugo Basile, Varese, Italy) which comprises a movable infra-red (IR) heat source, a glass pane onto which the 3-compartment rat enclosure is placed and a controller. […] The withdrawal latency is measured by the time difference between the activation of the IR heat source and physical withdrawal of the paw or tail from the stimulus. […]

CB1 receptor = target: T1, CB1 receptor (Rattus norvegicus, UniProt P20272); test: Radioligand binding assay, rat cerebellum membranes
T1 construct: the cerebellum was dissected away from the rest of the brain, weighed and homogenised; from tissue; host or cells: Sprague Dawley rat cerebellum membranes
T1 sequence (P20272 whole entry): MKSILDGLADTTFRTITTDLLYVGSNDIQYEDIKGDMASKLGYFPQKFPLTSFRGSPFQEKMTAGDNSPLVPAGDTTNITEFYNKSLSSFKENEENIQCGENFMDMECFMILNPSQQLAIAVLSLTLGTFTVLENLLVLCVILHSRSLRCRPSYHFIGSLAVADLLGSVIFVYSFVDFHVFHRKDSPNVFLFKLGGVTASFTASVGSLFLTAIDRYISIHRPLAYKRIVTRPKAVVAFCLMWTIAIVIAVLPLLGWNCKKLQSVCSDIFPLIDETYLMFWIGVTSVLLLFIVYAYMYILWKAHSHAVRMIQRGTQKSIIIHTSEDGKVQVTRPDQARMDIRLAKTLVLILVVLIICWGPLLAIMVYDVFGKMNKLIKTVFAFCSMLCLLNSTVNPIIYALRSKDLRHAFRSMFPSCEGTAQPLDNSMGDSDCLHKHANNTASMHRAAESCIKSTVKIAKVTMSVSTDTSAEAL
Description: The affinity of compounds at cannabinoid receptors is routinely assessed using ligand binding assays known to those skilled in the art. Radioligand binding assays were conducted using rat cerebellum or rat spleen. The cerebellum of the rat is known to express predominantly, if not exclusively, the CB1 receptor subtype (20,21). Thus, binding constants obtained from these studies are characterised by a single affinity value, as only one receptor type is labelled. […] In contrast, biphasic binding curves in the spleen characterised by two affinity constants represent the profile of compounds showing selectivity for one receptor subtype over another. In order to determine the order of selectivity, the high and low affinity values obtained for these compounds in the spleen binding assays were compared to the single affinity estimates obtained for the cerebellum (CB1) assays.
Sprague Dawley rats of either sex (200-300 g) were killed by gassing with 80% CO2 in O2 and decapitation, and the entire brain excised rapidly and placed in ice-cold Tris-HCl buffer (Tris 50 mM, MgCl2 3 mM, EGTA 0.2 mM, pH to 7.4 with HCl). On ice, the cerebellum was dissected away from the rest of the brain, weighed and homogenised (PT-DA 1205/2EC Polytron Aggregate; Kinematica, Luzernerstrasse Switzland) in 10 volumes of ice-cold Tris-HCl buffer. The homogenate was then made up to 20 volumes and centrifuged (Model J2-M1, Beckman, Fullerton, Calif., U.S.A.) at […] for 15 min at 4° C.). Subsequently, the supernatant was discarded, the pellet resuspended in 20 volumes of buffer and centrifuged as before. The resulting pellet was then resuspended in 20 volumes of buffer and assayed for protein content using the method of Bradford (Bradford, 1976) in a Novaspec II spectrophotometer (Pharmacia Biotech; with bovine serum albumin (BSA; Hömosafe BSA, c/o ‘ScimaR’ Templestowe, Australia) as the standard. The homogenate was then recentrifuged and the final pellet resuspended in Tris-HCl buffer at a protein concentration of 5 mg/ml and stored in 500 μl aliquots at −80° C. until used in the binding assay.
Ligand binding assays were performed in polypropylene tubes in a total volume of 1 ml containing Tris-HCl buffer, a final concentration of 1 mg/ml BSA, and varying concentrations of drugs. Tubes contained 30 μg of membrane protein and incubation was started by the addition of 100 μl of either 0.5 nM [^3H]SR141716A or 0.2 nM [^3H]WIN 55,212-2. Experiments were carried out in triplicate at 30° C. for 90 min with non-specific binding being defined as radioligand binding in the presence of 1 μM unlabelled WIN 55,212-2. Incubations were terminated by rapid filtration with a M-24 Cell Harvester (Brandel; Gaithersburg, Md., U.S.A.) using ice-cold Tris-HCl buffer containing 0.5 mg/ml BSA. Filters (Wattman GF/B) were soaked for 2 h prior to filtering in a solution of Tris-HCl buffer containing 3 mg/ml BSA and 0.5% w/w polyethyleneimine (PEI). Filters were left to dry thoroughly before placement into scintillation vials with 5 ml of scintillation cocktail (Ultima Gold LSC-cocktail; Packard Bioscience, Meriden, Conn., U.S.A.) being added. Vials were left to stand overnight before the radioactivity was determined using a Model 1409 DSA Liquid Scintillation counter (EG&E Wallac, Gaithersburg, Md., U.S.A.).
The resulting radioligand binding curves were analyzed by nonlinear regression using the program PRISM 3.0 (GraphPad Software, San Diego, Calif.) in order to derive ligand affinity estimates for the cannabinoid receptor(s).

## c1ccc(Cc2noc(-c3cn(CCN4CCCC4)c4ccccc34)n2)cc1 [Compound 1, 3-(3-Benzyl-[1,2,4]-oxadiazol-5-yl)-1-[2-(pyrrolidin-1-yl)ethyl]-1H-indole]
Sprague-Dawley rats; i.t. route
  antinociceptive effect: provided an antinociceptive effect
Sprague-Dawley rats; i.v. route
  antinociceptive effect: provided an antinociceptive effect
CB1 receptor
  IC50: 50 nM

From patent US6930118B2, “3-Oxadiazol-5-yl-1-aminoalkyl-1h-indole derivatives” (Amrad Operations Pty. Ltd., priority 2001, dated 2005)
